Ends that are not written are not given here. * marks the point of attachment. Biotin = O=C1N[C@H]2[C@H](CS[C@H]2CCCCC(=O)*)N1
Legend:
[1] = ELISA of phage-peptide clones on pig skin (specificity control); format: binding; conditions: for Pig Skin A450: phage ELISA, anti-M13 HRP conjugate, mean of at least three replicates
Procedure: (§1) Enzyme-linked immunosorbent assay (ELISA) was used to evaluate the hair-binding specificity of selected phage-peptide clones. Phage-peptide clones identified in Examples 1 and 2 along with a randomly chosen control G-F9, KHGPDLLRSAPR (given as SEQ ID NO:63) were amplified. More than […] (plaque forming units) phage were added to pre-blocked hair surfaces.
(§2) A unique hair or pig skin-bottom 96-well apparatus was created by applying one layer of PARAFILM® under the top 96-well block of a Minifold I Dot-Blot System (Schleicher & Schuell, Inc., Keene, N.H.), adding hair or a layer of hairless pig skin on top of the PARAFILM® cover, and then tightening the apparatus. For each clone to be tested, the hair-covered well was incubated for 1 h at room temperature with 200 μL of blocking buffer, consisting of 2% non-fat dry milk (Schleicher & Schuell, Inc.) in TBS. A second Minifold system with pig skin at the bottom of the wells was treated with blocking buffer simultaneously to serve as a control. The blocking buffer was removed by inverting the systems and blotting them dry with paper towels. The systems were rinsed 6 times with wash buffer consisting of TBST-0.05%. The wells were filled with 200 μL of TBST-0.5% containing 1 mg/mL BSA and then 10 μL (over […]) of purified phage stock was added to each well. The samples were incubated at 37° C. for 15 min with slow shaking. The non-binding phage was removed by washing the wells 10 to 20 times with TBST-0.5%. Then, 100 μL of horseradish peroxidase/anti-M13 antibody conjugate (Amersham USA, Piscataway, N.J.), diluted 1:500 in the blocking buffer, was added to each well and incubated for 1 h at room temperature. The conjugate solution was removed and the wells were washed 6 times with TBST-0.05%. TMB (3,3′,5,5′-tetramethylbenzidine) substrate (200 μL), obtained from Pierce Biotechnology (Rockford, Ill.) was added to each well and the color was allowed to develop for between 5 to 30 min, typically for 10 min, at room temperature. Then, stop solution (200 μL of 2 M H2SO4) was added to each well and the solution was transferred to a 96-well plate and the A450 was measured using a microplate spectrophotometer (Molecular Devices, Sunnyvale, Calif.). The resulting absorbance values, reported as the mean of at least three replicates, and the standard error of the mean (SEM) are given in Table 10.

[2] = ELISA of phage-peptide clones on hair; format: binding, human; conditions: for Hair A450: phage ELISA, anti-M13 HRP conjugate, mean of at least three replicates
Procedure: as §1, §2

[3] = ELISA-based MB50 determination on pig skin; format: binding; conditions: for binding affinity for skin: in words, from MB50; for EC50: substrate Pig Skin, biotinylated peptide
Excerpt: (§3) The term “MB50” refers to the concentration of the binding peptide that gives a signal that is 50% of the maximum signal obtained in an ELISA-based binding assay as described herein. The MB50 provides an indication of the strength of the binding interaction or affinity of the components of the complex. The lower the value of MB50, the stronger the interaction of the peptide with its corresponding substrate.
(§4) Hair-binding and skin-binding peptides were synthesized by SynPep Inc. (Dublin, Calif.). The peptides were biotinylated by adding a biotinylated lysine residue at the C-terminus of the amino acid binding sequences for detection purposes and an amidated cysteine was added to the C-terminus of the sequence.
(§5) For hair samples, the procedure used was as follows. The setup of the surface specific 96-well system used was the same as that described in Example 5. Briefly, the 96-wells with hair or pig skin surfaces were blocked with blocking buffer (SUPERBLOCK™ from Pierce Chemical Co., Rockford, Ill.) at room temperature for 1 h, followed by six washes with TBST-0.5%, 2 min each, at room temperature. Various concentrations of biotinylated, binding peptide were added to each well, incubated for 15 min at 37° C., and washed six times with TBST-0.5%, 2 min each, at room temperature. Then, streptavidin-horseradish peroxidase (HRP) conjugate (Pierce Chemical Co.) was added to each well (1.0 μg per well), and incubated for 1 h at room temperature. After the incubation, the wells were washed six times with TBST-0.5%, 2 min each at room temperature. Finally, the color development and the measurement were performed as described in Example 5.
For the measurement of MB50 of the peptide-skin complexes, the following procedure was used. First, the pigskin was treated to block the endogenous biotin in the skin. This was done by adding streptavidin to the blocking buffer. After blocking the pigskin sample, the skin was treated with D-biotin to block the excess streptavidin binding sites. The remaining steps were identical to those used for the hair samples.
(§6) The results were plotted as A450 versus the concentration of peptide using GraphPad Prism 4.0 (GraphPad Software, Inc., San Diego, Calif.).

[4] = Titer-based assay of hair-binding phage clones; design: species or system human; conditions: output pfu retained by 10 mg of normal hair; input 10^14 pfu; acid-eluted phage
Procedure: Phage clones displaying specific peptides were used for comparing the binding characteristics of different peptide sequences. A titer-based assay was used to quantify the phage binding. This assay measures the output pfu retained by 10 mg of hair surfaces, having a signal to noise ratio of 10^3 to 10^4. The input for all the phage clones was 10^14 pfu. It should be emphasized that this assay measures the peptide-expressing phage particle, rather than peptide binding.
Normal hairs were cut into 0.5 cm lengths and 10 mg of the cut hair was placed in each well of a 96-well filter plate (Qiagen). Then, the wells were filled with blocking buffer containing 1 mg/mL BSA in TBST-0.5% and incubated for 1 h at 4° C. The hairs were washed 5 times with TBST-0.5%. The wells were then filled with 1 mL of TBST-0.5% containing 1 mg/mL BSA and then purified phage clones (10^14 pfu) were added to each well. The hair samples were incubated for 15 min at room temperature and then washed 10 times with TBST-0.5%. The hairs were transferred to a clean well and 1.0 mL of a non-specific elution buffer, consisting of 1 mg/mL BSA in 0.2 M Glycine-HCl at pH 2.2, was added to each well. The samples were incubated for 10 min and then 160 μL of neutralization buffer (1 M Tris-HCl, pH 9.2) was added to each well. The eluted phage from each well were transferred to a new tube for titering and sequencing analysis.
To titer the bound phage, the eluted phage was diluted with SM buffer to prepare 10-fold serial dilutions of 10^1 to 10^8. A 10 μL aliquot of each dilution was incubated with 200 μL of mid-log phase E. coli ER2738 (New England BioLabs), and grown in LB medium for 20 min and then mixed with 3 mL of agarose top (LB medium with 5 mM MgCl2, and 0.7% agarose) at 45° C. This mixture was spread onto a LB medium/IPTG/Xgal (5-bromo-4-chloro-3-indolyl-β-D-galactopyranoside) plate (LB medium with 15 g/L agar, 0.05 g/L IPTG, and 0.04 g/L Xgal) and incubated overnight at 37° C.

[5] = ELISA-based MB50 determination on hair; format: binding, human; conditions: for binding affinity for respective substrate (hair): in words, from MB50; for EC50: biotinylated peptide
Excerpt: as §3, §4, §5, §6

[6] = Peptide competition ELISA with D21 phage; format: binding, human
Procedure: The purpose of this Example was to test the peptide binding site specificity and affinity of the hair-binding peptide D21 using a competition ELISA. The ELISA assay only detects phage particles that remain bound to the hair surface.
The synthetic hair-binding peptide D21, given as SEQ ID NO:46 was synthesized by SynPep (Dublin, Calif.). As a control, an unrelated synthetic skin-binding peptide (SK-1), given as SEQ ID NO:61, was added to the system. The experimental conditions were similar to those used in the ELISA method described in Example 5. Briefly, 100 μL of Binding Buffer (1×TBS with 0.1% Tween® 20 and 1 mg/mL BSA) and 10^11 pfu of the pure D21 phage particles were added to each well of the 96-well filter plate, which contained a sample of normal hair. The synthetic peptide (100 μg) was added to each well (corresponding to concentration of 0.8 mM). The reactions were carried out at room temperature for 1 h with gentle shaking, followed by five washes with TBST-0.5%. The remaining steps were identical to the those used in the ELISA method described in Example 5. Each individual ELISA test was performed in triplicate; the values in Table 11 are the means of the triplicate determinations.

[7] = in words, from the data in Table 10

Substance | Pig Skin A450 [1] | Hair A450 [2] | Phage Titer [4] | further results
AKTHKHPAPSYS [Clone C13] | 0.024 | 0.375 | – | –
Binding Peptide D21: biotinylated hair-binding peptide D21 (binding sequence SEQ ID NO:46) (RTNAADHPAAVTK(Biotin)C-NH2; N-terminus assumed; SMILES CC(C)[C@H](NC(=O)[C@H](C)NC(=O)[C@H](C)NC(=O)[C@@H]1CCCN1C(=O)[C@H](Cc1c[nH]cn1)NC(=O)[C@H](CC(=O)O)NC(=O)[C@H](C)NC(=O)[C@H](C)NC(=O)[C@H](CC(N)=O)NC(=O)[C@@H](NC(=O)[C@@H](N)CCCNC(=N)N)[C@@H](C)O)C(=O)N[C@H](C(=O)N[C@@H](CCCCNC(=O)CCCC[C@@H]1SC[C@@H]2NC(=O)N[C@@H]21)C(=O)N[C@@H](CS)C(N)=O)[C@@H](C)O) | – | – | – | binding affinity for skin [3]: relatively low
DLHTVYH (displayed on phage; Hair-binding peptide) [Clone A] | – | – | 7.50 × 10^4 | –
EQISGSLVAAPW [Clone A5] | 0.256 | 0.431 | – | –
GPHDTSSGGVRPNLHHTSKKEKRENRKVPFYSHSVTSRGNV [Clone D5] | 0.104 | 0.652 | – | –
GPHDTSSGGVRPNLHHTSKKEKRENRKVPFYSHSVTSRGNV [Clone G] | – | – | 1.67 × 10^8 | –
HIKPPTR (displayed on phage; Hair-binding peptide) [Clone B] | – | – | 1.21 × 10^5 | –
HLTVPWRGGGSAVPFYSHSQITLPNH [Clone F] | – | – | 1.11 × 10^6 | –
HPVWPAI (displayed on phage; Hair-binding peptide) [Clone D] | – | – | 8.20 × 10^4 | –
I-B5 (TPPELLHGDPRS; Hair-binding peptide) [listing 1 of 2 here] | – | – | – | binding affinity for skin [3]: relatively low; binding affinity for respective substrate (hair) [5]: high
I-B5 (TPPELLHGDPRS; Hair-binding peptide) [listing 2 of 2 here] | – | – | – | EC50 [3]: > 100 µM; EC50 ([5]; substrate Normal and Bleached Hair): 0.3 µM
KHGPDLLRSAPR [Clone G-F9, reference compound] | −0.137 | 0.074 | – | –
KHPTYRQ (displayed on phage; Hair-binding peptide) [Clone H] | – | – | 1.30 × 10^6 | –
LGIPQNL (displayed on phage; Hair-binding peptide) [Clone D39] | 0.086 | 0.685 | – | –
LPRIANTWSPS [Clone F35] | – | – | – | binding affinity for respective substrate (hair) [5]: high; EC50 ([5]; substrate Bleached Hair): 3 µM
MHAHSIA (displayed on phage; Hair-binding peptide) [Clone A36] | 0.173 | 0.585 | – | –
MPKYYLQ (displayed on phage; Hair-binding peptide) [Clone J] | – | – | 1.24 × 10^6 | –
MPLYYLQ (displayed on phage; Hair-binding peptide) [Clone E] | – | – | 1.70 × 10^5 | –
NSPGYQADSVAIG [Clone D30] | 0.287 | 0.414 | – | –
RTNAADHPAAVT [Clone D21] | – | – | – | A450 ([6]; 10^11 pfu D21 phage on normal hair, synthetic peptide 100 μg per well (0.8 mM) where added, mean of triplicate): 1.878
RTNAADHPAAVT [Peptide D21] | 0.04 | 1.051 | – | EC50 [3]: 40 µM; affinity for pig skin [1, 7]: very low; binding affinity for respective substrate (hair) [5]: high; EC50 ([5]; substrate Normal Hair): 2 µM; binding affinity for hair [2, 7]: very strong; selectivity for hair compared to pig skin [2, 7]: highest; competition with the phage clone D21 for the same binding sites on the hair surface ([6]; in words): does compete
SLNWVTIPGPKI [Clone C10] | 0.032 | 0.542 | – | –
TAATTSP (displayed on phage; Hair-binding peptide) [Clone B1] | 0.127 | 0.42 | – | –
TDMQAPTKSYSN [Clone C5] | 0.047 | 0.548 | – | –
TPALDGLRQPLR [Clone C18] | 0.132 | 0.34 | – | –
TPFHSPENAPGS [SK-1] | – | – | – | binding affinity for skin [3]: high; EC50 [3]: 0.7 µM
